pIC50: −log10 of the molar value. Like-named read-outs stand apart in the source and are kept apart here.
How the values were obtained:
GLC4 cells = experiment: Steady-state cellular [3H]daunorubicin accumulation in GLC4 cells; assay type: cell-based, human; conditions: for Accumulation of daunorubicin, mean percentages of control (set at 100%): GLC4, (iso)flavonoid 50 µM (μM), 0.5 M DNR, 75 min; for Effect on accumulation of DNR in GLC4 cells: 50 µM (μM)
SW1573 = experiment: Growth inhibition assay, SW1573; assay type: cell-based; conditions: Homo sapiens, read-out: IC50 value
GLC4 = experiment: Growth inhibition assay, GLC4; assay type: cell-based, human; conditions: for pIC50: Homo sapiens, read-out: IC50 value
S1(1.1) = experiment: Growth inhibition assay, S1(1.1); assay type: cell-based; conditions: Homo sapiens, 72 h, read-out: IC50 value
GLC4/ADR cells = experiment: Steady-state cellular [3H]daunorubicin accumulation in GLC4/ADR cells; assay type: cell-based, human; conditions: for Effect on accumulation of DNR in GLC4/ADR cells: 50 µM (μM); for Accumulation of daunorubicin, mean percentages of control (set at 100%): (iso)flavonoid 50 µM (μM), 0.5 M DNR, 75 min
GLC4/ADR = experiment: Growth inhibition assay, GLC4/ADR; assay type: cell-based, human; conditions: for Resistance of MRP1 overexpressing cells: 72-h exposures; for pIC50: Homo sapiens, GLC-4/ADR, 72 h, read-out: IC50 value
MRP1 ATPase activity = molecular target: T1, MRP1 ATPase activity (Homo sapiens, UniProt P33527); experiment: ATPase activity of GLC4/ADR plasma membranes (colourimetric inorganic phosphate); assay type: biochemical; conditions: for Induction of ATPase activity of GLC4/ADR membranes in the concentration range tested: glycosylated (iso)flavonoids, Figure 4
T1 construct: plasma membrane vesicles prepared from the MRP1 overexpressing cell line GLC4/ADR; endogenous in cells; host or cells: GLC4/ADR (adriamycin-selected human small-cell lung cancer subline); plasma membrane vesicles
Text: One form of cellular resistance, directed against a wide spectrum of natural agents, is referred to as multidrug resistance (MDR). […] The ATP-dependent transport of anticancer drugs out of tumour cells that express MDR proteins may at least theoretically lead to impaired treatment outcome of patients. […] 1-Chloro-2,4-dinitrobenzene (CDNB) was from Sigma (St Louis, MO, USA). […] The isoflavonoid genis- tein was from ICN Biomedicals (Zoetermeer, The Netherlands). […] The (iso)flavonoids were dissolved as a stock solution of 40 mM in dimethyl sulphoxide (DMSO; Across Chimica, Belgium) and stored at -20C. Before experiments, 1:1 dilutions were made in ethanol, followed by a dilution in ethanol/water (1: 3; v/v) to the appropriate concentrations. The maximal concentration of DMSO and ethanol, which was also added to the controls, was 0.5% (v/v). Membrane filters OE67 were from Schleicher and Schuell (Dassel, Germany). Doxorubicin hydrochloride was from Laboratoire Roger Bellon (France). […] S1(MRP1) cells were cultured in the presence of G418 until 2-10 days before experiments. […] Cells were harvested by centrifugation (275 g, 5 min) and washed twice in phosphate-buffered saline. Subsequently, the cells were incubated in 100 mM potassium chloride (KCl), 5 mM magnesium chloride (MgCl2 ), 1 mM phenylmethylsulphonyl fluoride and 50 mM HEPES-KOH (pH 7.4) for 1 h at 0C, in order to allow the cells to swell. Then the cells were ultrasonicated at 20% of the maximum power of an MSE sonicator (Soniprep 150) for three bursts of 15 s. The suspension was centrifuged at 1500 g for 10 min. […] After centrifugation at 100 000 g for 60 min the interface was removed and washed in 100 mM KC1-50 mM HEPES-5 mM MgCl2 buffer (pH 7.4). The final membrane preparations were stored at -80C at a protein concentration of ~ 4 mg ml-1 . […] Vesicles were incubated in KCl-HEPES buffer (pH 7.4) at 37C (protein concentration ~ 0.25 mg ml-1 ), in the presence of 10 mM MgCl2 with or without 1 mM ATP and tritium-labelled DNP-SG. The reaction was stopped by adding ice-cold KCl-HEPES buffer. After rapid filtration, the filters were washed twice with KCl-HEPES buffer. The radioactivity on the filters was measured by liquid scintillation counting. […] Plasma membranes were incubated for 1 h in KCl-HEPES buffer (pH 7.4) at 37C, in the presence of 1 mM EGTA, 1 mM sodium azide and 0.1 mM ouabain, with or without 1 mM ATP. […] Plasma membranes from GLC4 cells (black bars) and GLC4 /ADR cells (white bars) were incubated with 10 nM DNP-SG in the absence or presence of the MIB6 antibody (MIB6) (10 g ml-1 ) or an MRP1 control antibody (10 g ml-1 ). […] In short, anti-MRP1 antibodies were tested for their capacity to inhibit DNP-SG transport into GLC4 /ADR inside-out plasma membrane vesicles.

S1(MRP) = experiment: Growth inhibition assay, S1(MRP); assay type: cell-based, human; conditions: Homo sapiens, 72 h; S1(MRP); 3 days drug exposure; read-out: IC50 value
MRP1 = molecular target: T2, MRP1 (Homo sapiens, UniProt P33527); experiment: ATP-dependent uptake of DNP-SG into GLC4/ADR plasma membrane vesicles; assay type: biochemical; conditions: using 100 nM DNP-SG
T2 construct: using MRP1-transfected cells and several couples of MRP1 overexpressing cell lines and their parental cell lines; endogenous in cells; host or cells: GLC4, GLC4/ADR, HL60, HL60/ADR and SW1573 (endogenous)
Text: One form of cellular resistance, directed against a wide spectrum of natural agents, is referred to as multidrug resistance (MDR). […] The ATP-dependent transport of anticancer drugs out of tumour cells that express MDR proteins may at least theoretically lead to impaired treatment outcome of patients. […] 1-Chloro-2,4-dinitrobenzene (CDNB) was from Sigma (St Louis, MO, USA). […] The isoflavonoid genis- tein was from ICN Biomedicals (Zoetermeer, The Netherlands). […] The (iso)flavonoids were dissolved as a stock solution of 40 mM in dimethyl sulphoxide (DMSO; Across Chimica, Belgium) and stored at -20C. Before experiments, 1:1 dilutions were made in ethanol, followed by a dilution in ethanol/water (1: 3; v/v) to the appropriate concentrations. The maximal concentration of DMSO and ethanol, which was also added to the controls, was 0.5% (v/v). Membrane filters OE67 were from Schleicher and Schuell (Dassel, Germany). Doxorubicin hydrochloride was from Laboratoire Roger Bellon (France). […] S1(MRP1) cells were cultured in the presence of G418 until 2-10 days before experiments. […] Cells were harvested by centrifugation (275 g, 5 min) and washed twice in phosphate-buffered saline. […] The radioactivity on the filters was measured by liquid scintillation counting. […]

T1 sequence (P33527 whole entry): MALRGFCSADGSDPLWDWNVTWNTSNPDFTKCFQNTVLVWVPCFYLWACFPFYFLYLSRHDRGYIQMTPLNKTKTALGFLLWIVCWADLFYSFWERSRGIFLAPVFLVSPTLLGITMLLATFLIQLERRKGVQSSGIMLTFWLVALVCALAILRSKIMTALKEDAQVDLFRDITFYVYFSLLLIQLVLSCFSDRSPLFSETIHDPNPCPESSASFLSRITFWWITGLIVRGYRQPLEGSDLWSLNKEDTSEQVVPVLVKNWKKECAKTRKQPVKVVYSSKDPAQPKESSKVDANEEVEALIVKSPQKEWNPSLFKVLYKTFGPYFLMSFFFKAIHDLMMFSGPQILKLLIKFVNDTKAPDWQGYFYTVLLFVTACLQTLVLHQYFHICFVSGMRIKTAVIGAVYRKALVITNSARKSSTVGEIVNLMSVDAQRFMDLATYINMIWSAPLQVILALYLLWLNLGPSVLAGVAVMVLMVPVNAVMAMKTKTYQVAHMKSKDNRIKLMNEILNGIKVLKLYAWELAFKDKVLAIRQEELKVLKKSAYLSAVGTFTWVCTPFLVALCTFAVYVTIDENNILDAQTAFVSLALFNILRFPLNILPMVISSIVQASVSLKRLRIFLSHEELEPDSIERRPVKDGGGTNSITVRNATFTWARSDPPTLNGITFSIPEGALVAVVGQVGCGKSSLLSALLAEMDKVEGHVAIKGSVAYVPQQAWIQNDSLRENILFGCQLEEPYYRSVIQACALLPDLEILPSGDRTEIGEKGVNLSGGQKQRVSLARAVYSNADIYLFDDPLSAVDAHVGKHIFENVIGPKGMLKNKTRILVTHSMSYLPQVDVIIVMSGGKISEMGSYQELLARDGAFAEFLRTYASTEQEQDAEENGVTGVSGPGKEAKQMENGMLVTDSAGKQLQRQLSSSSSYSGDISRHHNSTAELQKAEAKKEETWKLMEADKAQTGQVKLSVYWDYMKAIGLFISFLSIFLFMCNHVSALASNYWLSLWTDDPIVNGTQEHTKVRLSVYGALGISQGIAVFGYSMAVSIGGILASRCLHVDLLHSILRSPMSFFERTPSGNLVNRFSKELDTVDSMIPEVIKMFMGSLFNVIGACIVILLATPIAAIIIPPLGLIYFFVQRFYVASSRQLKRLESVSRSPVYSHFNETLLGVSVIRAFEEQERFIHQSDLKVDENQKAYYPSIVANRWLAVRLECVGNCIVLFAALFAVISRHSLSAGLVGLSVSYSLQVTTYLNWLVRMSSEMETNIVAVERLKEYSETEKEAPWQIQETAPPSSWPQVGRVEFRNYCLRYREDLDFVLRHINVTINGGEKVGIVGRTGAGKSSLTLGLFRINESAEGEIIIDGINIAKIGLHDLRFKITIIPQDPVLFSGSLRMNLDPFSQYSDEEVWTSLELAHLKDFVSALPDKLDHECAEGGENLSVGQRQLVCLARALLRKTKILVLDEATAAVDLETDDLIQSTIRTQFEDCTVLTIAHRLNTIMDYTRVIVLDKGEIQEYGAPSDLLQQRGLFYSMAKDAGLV
T2 sequence (P33527 whole entry): as above

## O=c1c(O)c(-c2ccc(O)cc2)oc2cc(O)cc(O)c12 [Kaempferol, kaempferol]
GLC4 cells
  Accumulation of daunorubicin, mean percentages of control (set at 100%): 92%
SW1573; SW1573, 72 h
  pIC50: 4.54
GLC4; GLC4, 72 h
  pIC50: 4.60
S1(1.1)
  pIC50: 4.37
GLC4/ADR cells
  Effect on accumulation of DNR in GLC4/ADR cells: increased the accumulation of DNR
GLC4/ADR cells; GLC4/ADR
  Accumulation of daunorubicin, mean percentages of control (set at 100%): 190%
GLC4/ADR
  Resistance of MRP1 overexpressing cells: No resistance
  pIC50: 4.96

## O=c1cc(-c2ccc(O)cc2)oc2cc(O[C@@H]3O[C@H](CO)[C@@H](O)[C@H](O)[C@H]3O)cc(O)c12 [Apigetrin, apigenin-7-glucose]
GLC4 cells
  Effect on accumulation of DNR in GLC4 cells: small, but significant decrease
MRP1 ATPase activity
  Induction of ATPase activity of GLC4/ADR membranes in the concentration range tested: did not induce ATPase activity
GLC4/ADR cells
  Effect on accumulation of DNR in GLC4/ADR cells: did not increase accumulation of DNR
GLC4/ADR cells; GLC4/ADR
  Accumulation of daunorubicin, mean percentages of control (set at 100%): 57%

## O=c1c(-c2ccc(O)cc2)coc2cc(O)cc(O)c12 [Genistein, genistein]
GLC4 cells
  Accumulation of daunorubicin, mean percentages of control (set at 100%): 107%
MRP1 ATPase activity; 50 µM genistein (μM), without MIB6
  ATPase stimulation, % of the control: 108%
MRP1 ATPase activity; GLC4/ADR membranes, lowest effective concentration and higher
  Concentrations at which ATPase activity of GLC4/ADR membranes was significantly induced: ≥ 1 µM
SW1573; 72 h, SW1573, 3 days drug exposure
  pIC50: 5.00
GLC4; 72 h, GLC4, 3 days drug exposure
  pIC50: 4.92
S1(1.1); S1(1.1), 3 days drug exposure
  pIC50: 5.05
S1(MRP)
  pIC50: 5.05
GLC4/ADR cells
  Effect on accumulation of DNR in GLC4/ADR cells: increased the accumulation of DNR
GLC4/ADR cells; GLC4/ADR, 10 M genistein (μM), Figure 6
  Difference of DNR accumulation from control (P < 0.05): gave a significant difference
GLC4/ADR cells; GLC4/ADR, Figure 6
  Modulation of cellular accumulation of DNR at low micromolar concentrations: did not modulate
GLC4/ADR
  Resistance of MRP1 overexpressing cells: No resistance
GLC4/ADR; GLC4/ADR, 3 days drug exposure
  pIC50: 4.89

## O=c1c(O[C@@H]2O[C@H](CO)[C@@H](O)[C@H](O)[C@H]2O)c(-c2ccc(O)cc2)oc2cc(O)cc(O)c12 [Kaempferol-3 glucose, kaempferol-3-glucose]
GLC4 cells
  Effect on accumulation of DNR in GLC4 cells: small, but significant decrease
GLC4/ADR cells
  Effect on accumulation of DNR in GLC4/ADR cells: did not increase accumulation of DNR

## O=c1cc(-c2ccc(O)cc2)oc2cc(O)cc(O)c12 [Apigenin, apigenin]
GLC4 cells
  Accumulation of daunorubicin, mean percentages of control (set at 100%): 91%
GLC4/ADR cells
  Effect on accumulation of DNR in GLC4/ADR cells: increased the accumulation of DNR

## N[C@@H](CCC(=O)N[C@@H](CSc1ccc([N+](=O)[O-])cc1[N+](=O)[O-])C(=O)NCC(=O)O)C(=O)O [DNP-SG, dinitrophenyl-S-glutathione]
MRP1
  ATP-dependent uptake of DNP-SG into GLC4/ADR vesicles: 490 pmol mg protein-1 min-1
MRP1 ATPase activity; 10 M DNP-SG (μM)
  Stimulation of basal ATPase activity of GLC4/ADR membranes above the control: 4.5 nmol mg protein-1 min-1
MRP1 ATPase activity; 10 M DNP-SG (μM), without MIB6
  ATPase activity stimulation compared to the control: 125%

## CCCN(CCC)S(=O)(=O)c1ccc(C(=O)O)cc1 [probenecid]
GLC4; GLC4, probenecid 0.5 mM, data not shown
  Effect of simultaneous incubation with probenecid on the cytotoxic effect of flavopiridol: did not alter
GLC4/ADR; GLC4/ADR, probenecid 0.5 mM, data not shown
  Effect of simultaneous incubation with probenecid on the cytotoxic effect of flavopiridol: did not alter

## O=c1c(-c2ccc(O)cc2)coc2cc(O[C@@H]3O[C@H](CO)[C@@H](O)[C@H](O)[C@H]3O)cc(O)c12 [Genistin, genistein-7-glucose]
GLC4 cells
  Accumulation of daunorubicin, mean percentages of control (set at 100%): 101%
MRP1 ATPase activity
  Induction of ATPase activity of GLC4/ADR membranes in the concentration range tested: did not induce ATPase activity
GLC4/ADR cells
  Effect on accumulation of DNR in GLC4/ADR cells: did not increase accumulation of DNR
GLC4/ADR cells; GLC4/ADR
  Accumulation of daunorubicin, mean percentages of control (set at 100%): 96%

Reference: paper PMC2362861, “Potent interaction of flavopiridol with MRP1” (British Journal of Cancer, 1999)
